This is an account of results in patent publication US11591336B2 (Relay Therapeutics, Inc., priority 2017, dated 2023).

For orientation: IC50 means the midpoint of a concentration-inhibition curve. Read a low IC50 as greater potency in that assay.

The target of this test is SHP2 (Homo sapiens (Human), UniProt Q06124). Put plainly: SHP2 Allosteric Inhibition Assay (DiFMUP prompt fluorescence). The class given is biochemical. Conditions: 0.25 nM SHP2 activated with 0.5 μM peptide IRS1_pY1172(dPEG8)pY1222; substrate DiFMUP 100 μM; 25° C.
SHP2, sequence (Q06124 whole entry): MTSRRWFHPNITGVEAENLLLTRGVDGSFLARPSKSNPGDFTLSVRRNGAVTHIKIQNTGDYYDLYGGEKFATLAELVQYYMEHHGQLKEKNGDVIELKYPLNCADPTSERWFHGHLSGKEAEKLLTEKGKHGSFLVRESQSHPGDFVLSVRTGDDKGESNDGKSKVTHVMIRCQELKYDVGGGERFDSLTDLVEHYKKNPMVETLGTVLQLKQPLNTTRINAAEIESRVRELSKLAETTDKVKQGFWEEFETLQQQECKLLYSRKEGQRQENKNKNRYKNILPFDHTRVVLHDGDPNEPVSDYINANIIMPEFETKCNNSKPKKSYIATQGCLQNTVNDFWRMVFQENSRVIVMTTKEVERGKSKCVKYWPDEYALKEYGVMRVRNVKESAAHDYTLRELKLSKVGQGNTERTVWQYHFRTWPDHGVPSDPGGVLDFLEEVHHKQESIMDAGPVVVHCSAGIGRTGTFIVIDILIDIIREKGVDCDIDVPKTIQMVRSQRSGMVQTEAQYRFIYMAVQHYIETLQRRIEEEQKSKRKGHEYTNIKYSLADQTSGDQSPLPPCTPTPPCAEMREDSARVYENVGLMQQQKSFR

Where a name gives a salt, the structure may show the parent alone.

For the compound `CNC(=O)c1cccc2c1CCCN2c1n[nH]c2nc(N3CCC(C)(CN)CC3)cnc12` [Compound 79, 1-(6-(4-(Aminomethyl)-4-methylpiperidin-1-yl)-1H-pyrazolo[3,4-b]pyrazin-3-yl)-N-methyl-1,2,3,4-tetrahydroquinoline-5-carboxamide], the IC50 is < 1000 nM.
The same measure for `CN(C)C(=O)c1cccc2c1CCCN2c1n[nH]c2nc(N3CCC(C)(CN)CC3)cnc12` [Compound 80, 1-(6-(4-(Aminomethyl)-4-methylpiperidin-1-yl)-1H-pyrazolo[3,4-b]pyrazin-3-yl)-N,N-dimethyl-1,2,3,4-tetrahydroquinoline-5-carboxamide]: < 1000 nM.
In the case of `COC(=O)c1ccc2c(n1)CCCN2c1n[nH]c2nc(N3CCC(C)(CN)CC3)cnc12` [Compound 81] it was < 1000 nM; in that of `NCC1(CO)CCN(c2cnc3c(N4CCCc5ncccc54)n[nH]c3n2)CC1` [Compound 82, (4-(aminomethyl)-1-(3-(3,4-dihydro-1,5-naphthyridin-1(2H)-yl)-1H-pyrazolo[3,4-b]pyrazin-6-yl)piperidin-4-yl)methanol dihydrochloride], < 1000 nM.
In the case of `CCCC1CCN(c2n[nH]c3nc(N4CCC(C)(CN)CC4)cnc23)c2ccccc21` (stereo not shown) [Compound 83] it was < 1000 nM; in that of `CCC1CCN(c2n[nH]c3nc(N4CCC(C)(CN)CC4)cnc23)c2ccccc21` (stereo not shown) [Compound 84], < 1000 nM; in that of `CCc1cccc2c1CCCN2c1n[nH]c2nc(N3CCC(C)(CN)CC3)cnc12` [Compound 85], < 1000 nM.
For the compound `CC1(CN)CCN(c2cnc3c(N4CCCc5c(C6CC6)cccc54)n[nH]c3n2)CC1` [Compound 86], the IC50 was < 1000 nM.
In the case of `CC1(CN)CCN(c2cnc3c(N4CCCc5c(C#N)cccc54)n[nH]c3n2)CC1` [Compound 87] it was < 1000 nM; in that of `CC1(CN)CCN(c2cnc3c(N4CCC(C)(C)c5ccccc54)n[nH]c3n2)CC1` [Compound 88], < 1000 nM; in that of `CC(C)C1CCN(c2n[nH]c3nc(N4CCC(C)(CN)CC4)cnc23)c2ccccc21` (stereo not shown) [Compound 89], < 1000 nM.
For the compound `Cc1ccnc2c1N(c1n[nH]c3nc(N4CCC(C)(CN)CC4)cnc13)CCC2` [Compound 90], the IC50 is 1000 to 10000 nM.
Regarding `CC(C)c1cccc2c1CCCN2c1n[nH]c2nc(N3CCC(C)(CN)CC3)cnc12` [Compound 91], the IC50 is < 1000 nM.
The same measure for `CC1(CN)CCN(c2cnc3c(N4CCCc5cc(S(C)(=O)=O)ccc54)n[nH]c3n2)CC1` [Compound 92]: < 1000 nM; for `CC1CCN(c2n[nH]c3nc(N4CCC(C)(CN)CC4)cnc23)c2ccc(C#N)cc21` (stereo not shown) [Compound 93]: < 1000 nM; for `CC1(CN)CCN(c2cnc3c(N4CCC(c5ccccc5)c5ccccc54)n[nH]c3n2)CC1` (stereo not shown) [Compound 96]: < 1000 nM.
As to `CCCC1(CN)CCN(c2cnc3c(N4CCCc5ncccc54)n[nH]c3n2)CC1` [Compound 97, (1-(3-(3,4-dihydro-1,5-naphthyridin-1(2H)-yl)-1H-pyrazolo[3,4-b]pyrazin-6-yl)-4-propylpiperidin-4-yl)methanamine dihydrochloride], the IC50 is < 1000 nM.
On to `CCC1(CN)CCN(c2cnc3c(N4CCCc5ncccc54)n[nH]c3n2)CC1` [Compound 98, (1-(3-(3,4-dihydro-1,5-naphthyridin-1(2H)-yl)-1H-pyrazolo[3,4-b]pyrazin-6-yl)-4-ethylpiperidin-4-yl)methanamine dihydrochloride], for which the IC50 was < 1000 nM.
The same measure for `CC1(CN)CCN(c2cnc3c(N4CCC(CO)c5ccccc54)n[nH]c3n2)CC1` (stereo not shown) [Compound 99, (1-(6-(4-(Aminomethyl)-4-methylpiperidin-1-yl)-1H-pyrazolo[3,4-b]pyrazin-3-yl)-1,2,3,4-tetrahydroquinolin-4-yl)methanol]: < 1000 nM; for `CNC(=O)C1CCN(c2n[nH]c3nc(N4CCC(C)(CN)CC4)cnc23)c2ccccc21` (stereo not shown) [Compound 100, 1-(6-(4-(Aminomethyl)-4-methylpiperidin-1-yl)-1H-pyrazolo[3,4-b]pyrazin-3-yl)-N-methyl-1,2,3,4-tetrahydroquinoline-4-carboxamide]: < 1000 nM; for `COC1(CN)CCN(c2cnc3c(N4CCCc5ncccc54)n[nH]c3n2)CC1` [Compound 101, (1-(3-(3,4-dihydro-1,5-naphthyridin-1(2H)-yl)-1H-pyrazolo[3,4-b]pyrazin-6-yl)-4-methoxypiperidin-4-yl)methanamine]: < 1000 nM.
Turning to `CC1(CN)CCN(c2cnc3c(N4CCC(C(F)(F)F)c5ccccc54)n[nH]c3n2)CC1` (stereo not shown) [Compound 106], the IC50 was < 1000 nM.
For `CNC(=O)c1cccc2c1CCN2c1n[nH]c2nc(N3CCC(C)(CN)CC3)cnc12` [Compound 107, 1-(6-(4-(aminomethyl)-4-methylpiperidin-1-yl)-1H-pyrazolo[3,4-b]pyrazin-3-yl)-N-methylindoline-4-carboxamide], the IC50 was < 1000 nM.
The same measure for `CC1(CN)CCN(c2cnc3c(N4CCc5c(C(N)=O)cccc54)n[nH]c3n2)CC1` [Compound 108, 1-(6-(4-(aminomethyl)-4-methylpiperidin-1-yl)-1H-pyrazolo[3,4-b]pyrazin-3-yl)indoline-4-carboxamide]: < 1000 nM; for `CC1CCN(c2n[nH]c3nc(N4CCC(C)(CN)CC4)cnc23)c2ccc(C(N)=O)cc21` (stereo not shown) [Compound 112, 1-(6-(4-(aminomethyl)-4-methylpiperidin-1-yl)-1H-pyrazolo[3,4-b]pyrazin-3-yl)-4-methyl-1,2,3,4-tetrahydroquinoline-6-carboxamide formate]: < 1000 nM.
In the case of `CNC(=O)c1ccc2c(c1)CCN2c1n[nH]c2nc(N3CCC(C)(CN)CC3)cnc12` [Compound 113, 1-(6-(4-(aminomethyl)-4-methylpiperidin-1-yl)-1H-pyrazolo[3,4-b]pyrazin-3-yl)-N-methylindoline-5-carboxamide] it was < 1000 nM.
The same measure for `CC1(CN)CCN(c2cnc3c(N4CCc5cc(C(N)=O)ccc54)n[nH]c3n2)CC1` [Compound 114, 1-(6-(4-(aminomethyl)-4-methylpiperidin-1-yl)-1H-pyrazolo[3,4-b]pyrazin-3-yl)indoline-5-carboxamide]: < 1000 nM; for `CC1(CN)CCN(c2cnc3c(N4CCC(C#N)c5ccccc54)n[nH]c3n2)CC1` (stereo not shown) [Compound 117]: < 1000 nM.
Regarding `CC1(CN)CCN(c2cnc3c(N4CCc5ccccc54)n[nH]c3n2)CC1` [Compound 118], the IC50 was < 1000 nM.
In the case of `CC1(CN)CCN(c2cnc3c(N4CCC(O)c5ccccc54)n[nH]c3n2)CC1` (stereo not shown) [Compound 119, 1-(6-(4-(aminomethyl)-4-methylpiperidin-1-yl)-1H-pyrazolo[3,4-b]pyrazin-3-yl)-1,2,3,4-tetrahydroquinolin-4-ol] it was < 1000 nM; in that of `Cc1c(C#N)ccc2c1CCCN2c1n[nH]c2nc(N3CCC(C)(CN)CC3)cnc12` [Compound 120], < 1000 nM.
With `Cn1cc(-c2cccc3c2CCCN3c2n[nH]c3nc(N4CCC(C)(CN)CC4)cnc23)cn1` [Compound 121], the IC50 was < 1000 nM.
The same measure for `CC1(CN)CCN(c2cnc3c(N4CCCc5c4ccc(C#N)c5C4CC4)n[nH]c3n2)CC1` [Compound 122]: < 1000 nM; for `CC1CN(c2n[nH]c3nc(N4CCC(C)(CN)CC4)cnc23)c2ccccc21` (stereo not shown) [Compound 123]: < 1000 nM; for `CC1(CN)CCN(c2cnc3c(N4CCc5ncccc54)n[nH]c3n2)CC1` [Compound 124]: < 1000 nM.
The compound `CC1(CN)CCN(c2cnc3c(N4CCc5cnccc54)n[nH]c3n2)CC1` [Compound 125] gave an IC50 of 1000 to 10000 nM.
The same measure for `CC1(CN)CCN(c2cnc3c(N4CCCc5nc(C#N)ccc54)n[nH]c3n2)CC1` [Compound 126]: < 1000 nM; for `CN1CCN(c2n[nH]c3nc(N4CCC(C)(CN)CC4)cnc23)c2ccccc21` [Compound 127]: < 1000 nM; for `CC1(CN)CCN(c2cnc3c(N4CCCc5c(Cl)cccc54)n[nH]c3n2)CC1` [Compound 130]: < 1000 nM.
On to `Cn1cc(-c2c(C#N)ccc3c2CCCN3c2n[nH]c3nc(N4CCC(C)(CN)CC4)cnc23)cn1` [Compound 131], for which the half-maximal inhibitory concentration (IC50) is < 1000 nM.
Consider `CC1(CN)CCN(c2cnc3c(N4CCCc5c4ccnc5Cl)n[nH]c3n2)CC1` [Compound 132], for which the IC50 was < 1000 nM.
For `CC1(CN)CCN(c2cnc3c(N4CCc5cc(C#N)ccc54)n[nH]c3n2)CC1` [Compound 133], the IC50 is < 1000 nM.
The same measure for `C[C@H]1Cc2ccccc2N1c1n[nH]c2nc(N3CCC(C)(CN)CC3)cnc12` [Compound 134]: < 1000 nM.
As for `C[C@@H]1Cc2ccccc2N1c1n[nH]c2nc(N3CCC(C)(CN)CC3)cnc12` [Compound 135], the IC50 was < 1000 nM.
As to `NS(=O)(=O)C1CCCN(c2cnc3c(N4CCCc5ncccc54)n[nH]c3n2)C1` (stereo not shown) [Compound 137], the IC50 is < 1000 nM.
Consider `OCC1CCCCN1c1cnc2c(N3CCCc4ncccc43)n[nH]c2n1` (stereo not shown) [Compound 138], for which the IC50 is < 1000 nM.
The same measure for `c1ccc(CC2CCCN(c3cnc4c(N5CCCc6ncccc65)n[nH]c4n3)C2)cc1` (stereo not shown) [Compound 139]: < 1000 nM; for `c1cncc(COC2CCN(c3cnc4c(N5CCCc6ncccc65)n[nH]c4n3)CC2)c1` [Compound 140]: ≥ 10000 nM; for `CC1(C)CCN(c2cnc3c(N4CCCc5ncccc54)n[nH]c3n2)CC1` [Compound 141]: ≥ 10000 nM.
The same measure for `c1ccc(OC2CCCN(c3cnc4c(N5CCCc6ncccc65)n[nH]c4n3)C2)cc1` (stereo not shown) [Compound 142]: ≥ 10000 nM.
Turning to `OC1CCCN(c2cnc3c(N4CCCc5ncccc54)n[nH]c3n2)C1` (stereo not shown) [Compound 143], the IC50 is ≥ 10000 nM.
For `c1ccc(CC2CCCN2c2cnc3c(N4CCCc5ncccc54)n[nH]c3n2)cc1` (stereo not shown) [Compound 144], the IC50 was ≥ 10000 nM.
The same measure for `CC1(CO)CCN(c2cnc3c(N4CCCc5ncccc54)n[nH]c3n2)CC1` [Compound 145]: ≥ 10000 nM; for `c1ccc(CC2CCN(c3cnc4c(N5CCCc6ncccc65)n[nH]c4n3)C2)cc1` (stereo not shown) [Compound 146]: ≥ 10000 nM; for `c1ccc(C2CCCN2c2cnc3c(N4CCCc5ncccc54)n[nH]c3n2)cc1` (stereo not shown) [Compound 147]: ≥ 10000 nM.
